These results are taken from patent US6875581B1, “Method for screening of modulators of calcineurin activity” (Genopia Biomedical GmbH, priority 1998, dated 2005).

For orientation: Vmax means the top rate of the reaction or transport when substrate is in excess. Usually Km stands for the concentration of substrate that gives half-maximal velocity.

For data set [1], the system named is calcineurin. Briefly: Phosphotyrosine phosphatase assay with the substrate fluoresceinmonophosphate (FMP). In kind it is biochemical. As to conditions: FMP as substrate, Lineweaver-Burk method. The method, then:
20. Calcineurin phosphatase assay—100 ng-4 μg recombinant calcineurin (calcineurin-A/B heterodimer), 100 ng-1 μg purified bovine brain calcineurin (Sigma Aldrich, Deisenhofen, Germany) or 100 μg homogenized tissue or cell extracts were used for classical calcineurin phosphatase assays. 100 μg cells or tissue were homogenized exactly as described (Stemmer et al., 1995). Partly purified and redox sensitive calcineurin was prepared by centrifugation at 14,000 rpm at 4° C. for 10 min (Eppendorf centrifuge 5417R) and the resulting supernatant was separated on a 1.5×10 cm Sephadex-G50 gelfiltration column as described (Stemmer et al., 1995), (Gold et al., 1997). […] After starting the enzymatic reaction with para-nitrophenylphosphate or fluoresceinmonophosphate the absorbance at 405 nm (para-nitrophenylphosphate) or fluorescence λ exication=485 nm; λ emission=520 nm) was monitored over 20 min at 30° C. using a UV/VIS/fluorescence microplate photometer (Biolumin 960 kinetic fluorescence/absorbance photometer, Molecular Dynamics). […] The protective effect of CuZnSOD against redox inactivation of calcineurin was determined by addition of 3 μg recombinant human wild-type or mutated CuZnSOD (constant CuZnSOD protein) or addition of 1.67 units of recombinant human wild-type or mutated CuZnSOD (constant CuZnSOD activity). […] The quantity of released phosphate was determined by a scintillation counting. […]

Data set [2] concerns calcineurin. Briefly: Protective effect of CuZnSOD against calcium induced redox inactivation of calcineurin (FK506 inhibitable RII-phosphopeptide activity). In kind it is biochemical. As to conditions: 20 min vs 0 min; for Percentage of FK506 inhibitable RII-phosphopeptide activity after 20 min compared with the activity at 0 min, constant protein (3 μg): 3 μg CuZnSOD; for Percentage of FK506 inhibitable RII-phosphopeptide activity after 20 min compared with the activity at 0 min, constant activity (1.67 U): 1.67 U CuZnSOD. Here is the method:
20. Calcineurin phosphatase assay—100 ng-4 μg recombinant calcineurin (calcineurin-A/B heterodimer), 100 ng-1 μg purified bovine brain calcineurin (Sigma Aldrich, Deisenhofen, Germany) or 100 μg homogenized tissue or cell extracts were used for classical calcineurin phosphatase assays. 100 μg cells or tissue were homogenized exactly as described (Stemmer et al., 1995). Partly purified and redox sensitive calcineurin was prepared by centrifugation at 14,000 rpm at 4° C. for 10 min (Eppendorf centrifuge 5417R) and the resulting supernatant was separated on a 1.5×10 cm Sephadex-G50 gelfiltration column as described (Stemmer et al., 1995), (Gold et al., 1997). Phosphotyrosine phosphatase assay was performed in microplates (100 μl total assay volume) either using 30 μM fluoresceinmonophosphate or 20 mM para-nitrophenylphosphate (Sigma Aldrich, Deisenhofen, Germany); 10 μl recombinant, purified or partly purified and assay buffer (25 mM Tris/HCl, pH 7; 2 mM CaCl2; 0.1 μM calmodulin; 25 μM FK506). After starting the enzymatic reaction with para-nitrophenylphosphate or fluoresceinmonophosphate the absorbance at 405 nm (para-nitrophenylphosphate) or fluorescence λ exication=485 nm; λ emission=520 nm) was monitored over 20 min at 30° C. using a UV/VIS/fluorescence microplate photometer (Biolumin 960 kinetic fluorescence/absorbance photometer, Molecular Dynamics). Phosphoserine phosphatase assay was performed as described (Hubbard and Klee, 1991), (Wang et al., 1996). […] The protective effect of CuZnSOD against redox inactivation of calcineurin was determined by addition of 3 μg recombinant human wild-type or mutated CuZnSOD (constant CuZnSOD protein) or addition of 1.67 units of recombinant human wild-type or mutated CuZnSOD (constant CuZnSOD activity). The reaction mixture was incubated for 2 min at 30° C. and stopped with 100 mM potassium phosphate/5% TCA. The reaction mixture was passed through a 0.5 ml ion-exchange column (Dowex; AG 50W-X8, BioRad) and the unbound phosphate eluted with 0.5 ml water. The quantity of released phosphate was determined by a scintillation counting.
Protective Effect of CuZnSOD of Calcium Induced Inactivation of Calcineurin
Percentage of FK506 inhibitable RII-phosphopeptide activity after 20 min compared with the activity at 0 min

A short description of data set [3]: SOD assay (enzymatic activity of the CuZnSOD proteins). The format is biochemical. Here is the method:
8. SOD assay and activity staining—Enzymatic activity of the CuZnSOD proteins were either analyzed by 10% native gel electrophoresis and activity staining with nitrotetrazolium blue dye or by a quantitative spectrophotometrically assay according to published protocols (Beauchamp and Fridovich, 1971; Nebot et al., 1993). Protein yields were determined by the Bradford method (Protein assay kit, BioRAD, Hercules, Calif., USA). The concentration of purified CuZnSOD was determined spectrophotometrically using the extinction coefficient 265=1.84×10^4 M^−1 cm^−1.

The test system of data set [4] is calcineurin-A/B heterodimer. Briefly: Laser fluctuation correlation spectroscopy, binding of fluorescence labeled CuZnSOD to calcineurin. More on the design: species or system human. Particulars: labeled CuZnSOD alone 41 kDa; expected 114 kDa. An excerpt: 21. High Throughput BioAssay using recombinant calcineurin-A, recombinant calcineurin-B, calmodulin and recombinant CuZnSOD (analytical assay to identify activators or inhibitors of CuZnSOD/calcineurin interaction)—Laser fluctuation correlation spectroscopy (FCS) is a useful tool to quantify ligand—ligand interactions. The fluorescence F(t) of a optical well defined volume element which is excitated by a confocal laser is monitored as a function of time. The temporal autocorrelation of the fluorescence fluctuation δ F(t) yields the time scale of this dynamics and the average number of independent fluorophores in the probe volume. If the fluorescene fluctuation arise from diffusive motion and from fluorescence sensitive reaction, fluorescent fluctuation correlation function signal is approximated by the formula: GDR(τ)=GDiff(τ)*[1+A*exp(−kR*τ)] • τ=fluorescence correlation time • kR=apparent binding constant of the fluorescent labeled ligand • A=equilibrium coefficent dependent constant
If one measurement is performed with a solution only containing the fluorescent labeled ligand and a second measurement is performed with a solution containing the fluorescent labeled ligand and an interacting molecule the correlation function GDR can be separately analyzed and yields binding parameters of the interacting molecules. […]

Take `O=C1OC2(c3ccc(O)cc3Oc3cc(OP(=O)(O)O)ccc32)c2ccccc21` (stereo not shown) [FMP, fluoresceinmonophosphate]: the Vmax with calcineurin [1] stood at 400 µmol/min. In addition, the Km in the data set with calcineurin [1] (Michaelis-Menten kinetic assumed) amounted to 40 µM.
Consider “erythrocyte wild-type: purified human erythrocyte CuZnSOD (Sigma Aldrich) [reference compound]”, for which, in the data set with calcineurin [2], the “Percentage of FK506 inhibitable RII-phosphopeptide activity after 20 min compared with the activity at 0 min, constant protein (3 μg)” value is 57 +/− 10% and the “Percentage of FK506 inhibitable RII-phosphopeptide activity after 20 min compared with the activity at 0 min, constant activity (1.67 U)” value is given as 57 +/− 10%. Further, the “CuZnSOD activity per mg protein” value in data set [3] is “(8330 U/mg)”.
On to “labeled CuZnSOD: recombinant CuZnSOD labeled with Oregon-Green-514 dye”, for which the “hydrodynamic radius / apparent molecular weight after addition of calcineurin-A/B heterodimer” value in data set [4] came out at 90 kDa.
In the case of “recomb. mutation A4V: recombinant human CuZnSOD with substitution Ala-4 -> Val-4”, in the data set on calcineurin [2], the “Percentage of FK506 inhibitable RII-phosphopeptide activity after 20 min compared with the activity at 0 min, constant protein (3 μg)” value is on record as 22 +/− 27% and the “Percentage of FK506 inhibitable RII-phosphopeptide activity after 20 min compared with the activity at 0 min, constant activity (1.67 U)” value was 8 +/− 3%. The “CuZnSOD activity per mg protein” value in data set [3] is “(1820 U/mg)”.
In the case of “recomb. mutation D90A: recombinant human CuZnSOD with substitution Asp-90 -> Ala-90”, in the data set on calcineurin [2], the “Percentage of FK506 inhibitable RII-phosphopeptide activity after 20 min compared with the activity at 0 min, constant protein (3 μg)” value was 42 +/− 17% and the “Percentage of FK506 inhibitable RII-phosphopeptide activity after 20 min compared with the activity at 0 min, constant activity (1.67 U)” value is on record as 32 +/− 15%. In data set [4], the “hydrodynamic radius / apparent molecular weight after addition of calcineurin-A/B heterodimer” value is on record as 180.000 kDa. In addition, in data set [3], the “CuZnSOD activity per mg protein” value is “(4590 U/mg)”.
For the molecule “recomb. mutation G93A: recombinant human CuZnSOD with substitution Gly-93 -> Ala-93”, in the data set with calcineurin [2], the “Percentage of FK506 inhibitable RII-phosphopeptide activity after 20 min compared with the activity at 0 min, constant protein (3 μg)” value is 16 +/− 16% and the “Percentage of FK506 inhibitable RII-phosphopeptide activity after 20 min compared with the activity at 0 min, constant activity (1.67 U)” value is listed as 21 +/− 22%. In data set [3], the “CuZnSOD activity per mg protein” value is on record as “(2130 U/mg)”.
The corresponding values for “recombinant wild-type: recombinant human wild-type copper/zinc superoxide dismutase expressed in E. coli” are 70 +/− 33%, 56 +/− 22% and “(6380 U/mg)”.
